In patent US10865191B2, “Heterocyclic compounds useful as modulators of TNF alpha” (BRISTOL-MYERS SQUIBB COMPANY, priority 2015, dated 2020):

Molecular target: TNFα (Homo sapiens, UniProt P01375)
Test: TNF induced HEK-Blue assay (NF-kB-driven secreted alkaline phosphatase reporter)
Type: cell-based
Conditions: TNFα 0.5 ng/mL, HEK-Blue-CD40L cells, 18 h; read-out: TNF induced HEK-Blue assay IC50 value
Method: TNF or CD40L-Induced HEK-Blue Assay
Test compounds serially diluted in DMSO were plated in an assay plate (LABCYTE, Cat. # LP-0200) at final concentrations ranging from 0.004 μM to 25 μM. TNFα (final concentration 0.5 ng/mL) or CD40L (final concentration 30 ng/mL) in assay buffer [DMEM, 4.5 g/l glucose (Gibco, Cat. 21063-029), 10% FBS (Sigma, F4135), 1% Penicillin-Streptomycin (Gibco, Cat. 15140-122), 1% Anti-Anti (Gibco, Cat. 15240-112) and 2 mM L-glutamine (Gibco, Cat. 25030-081)] was then added to the assay plate. After a 30 minute pre-incubation at 37° C. and 5% CO2, HEK-Blue™-CD40L cells (INVIVOGEN, Cat. Code hkb-cd40) containing a NF-kB-driven secreted alkaline phosphatase reporter gene were seeded into the assay plate at a density of 20,000 cells per well. This plate was then incubated for 18 h at 37° C. and 5% CO2. Secreted alkaline phosphatase expression was measured using QUANTI-Blue™ (INVIVOGEN, Cat. Code rep-qb1) according to manufacturer's specifications and the assay plate was read on a PerkinElmer Envision at 620 nm.
Inhibition data for the test compound over a range of concentrations was plotted as percentage inhibition of the test compound (100%=maximum inhibition). IC50 values were determined after correcting for background [(sample read-mean of low control)/(mean of high control-mean of low control)] where by the low control is DMSO without stimulation and high control is DMSO with stimulation. The IC50 is defined as the concentration of test compound which produces 50% inhibition and was quantified using the 4 parameter logistic equation to fit the data.

Sequence of TNFα (P01375 77-233 limits assumed): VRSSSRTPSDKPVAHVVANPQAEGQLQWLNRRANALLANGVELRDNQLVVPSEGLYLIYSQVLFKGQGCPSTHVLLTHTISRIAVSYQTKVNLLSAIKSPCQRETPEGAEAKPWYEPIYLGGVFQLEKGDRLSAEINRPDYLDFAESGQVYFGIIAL

IC50 [µM]	Structure (SMILES)
< 1	CCC(Nc1c(Cl)cnc2ccc(-c3ccc(C(C)(C)O)cc3)cc12)c1nc(C(N)=O)ccc1F (racemic) [Example 24, 6-(1-((3-chloro-6-(4-(2-hydroxypropan-2-yl)phenyl)quinolin-4-yl)amino)propyl)-5-fluoropicolinamide]
< 1	CC(Nc1c(Cl)cnc2ccc(-c3ccc(C(C)(C)O)cc3)cc12)c1nc(C(N)=O)ccc1F (racemic) [Example 27, 6-(1-((3-chloro-6-(4-(2-hydroxypropan-2-yl)phenyl)quinolin-4-yl)amino)ethyl)-5-fluoropicolinamide]
< 1	CC(Nc1c(Cl)cnc2ccc(-c3cnc(C(C)(C)O)nc3)cc12)c1nc(C(N)=O)ccc1F (racemic) [Example 28, 6-(1-((3-chloro-6-(2-(2-hydroxypropan-2-yl)pyrimidin-5-yl)quinolin-4-yl)amino)ethyl)-5-fluoropicolinamide]
1 to 10	CC(Nc1c(Cl)cnc2ccc(-c3cnc(N4CCNC(=O)C4)nc3)cc12)c1nc(C(=O)Nc2ccccc2)ccc1F (racemic) [Example 38, 6-(1-((3-chloro-6-(2-(3-oxopiperazin-1-yl)pyrimidin-5-yl)quinolin-4-yl)amino)ethyl)-5-fluoro-N-phenylpicolinamide]
< 1	CCNC(=O)c1ccc(F)c(C(C)Nc2c(Cl)cnc3ccc(-c4cnc(N5CCNC(=O)C5)nc4)cc23)n1 (racemic) [Example 39, 6-(1-((3-chloro-6-(2-(3-oxopiperazin-1-yl)pyrimidin-5-yl)quinolin-4-yl)amino)ethyl)-N-ethyl-5-fluoropicolinamide]
< 1	CC1Cc2ccccc2N1Nc1c(Cl)cnc2ccc(-c3cnc(C(C)(C)O)nc3)cc12 (racemic) [Example 48, 2-(5-(3-chloro-4-((2-methylindolin-1-yl)amino)quinolin-6-yl)pyrimidin-2-yl)propan-2-ol]
< 1	CC(C)(O)c1ncc(-c2ccc3ncc(Cl)c(NC(c4ccccc4F)C(C)(C)O)c3c2)cn1 (racemic) [Example 49, 1-((3-chloro-6-(2-(2-hydroxypropan-2-yl)pyrimidin-5-yl)quinolin-4-yl)amino)-1-(2-fluorophenyl)-2-methylpropan-2-ol]
< 1	CCC(Nc1c(Cl)cnc2ccc(-c3cnc(C(C)(C)O)nc3)cc12)C1CCC1 (racemic) [Example 50, 2-(5-(3-chloro-4-((1-cyclobutylpropyl)amino)quinolin-6-yl)pyrimidin-2-yl)propan-2-ol]
< 1	CC(C)C(Nc1c(Cl)cnc2ccc(-c3cnc(C(C)(C)O)nc3)cc12)c1ccccn1 (racemic) [Example 51, 2-(5-(3-chloro-4-((2-methyl-1-(pyridin-2-yl)propyl)amino)quinolin-6-yl)pyrimidin-2-yl)propan-2-ol]
< 1	CCC(Nc1c(Cl)cnc2ccc(-c3cnc(C(C)(C)O)nc3)cc12)c1ccccn1 (racemic) [Example 52, 2-(5-(3-chloro-4-((1-(pyridin-2-yl)propyl)amino)quinolin-6-yl)pyrimidin-2-yl)propan-2-ol]
< 1	CC(C)(O)c1ncc(-c2ccc3ncc(Cl)c(NC(c4ccccc4)C(F)F)c3c2)cn1 (racemic) [Example 57, 2-(5-(3-chloro-4-((2,2-difluoro-1-phenylethyl)amino)quinolin-6-yl)pyrimidin-2-yl)propan-2-ol]
1 to 10	CC(Nc1c(Cl)cnc2ccc(-c3cnc(C(C)(C)O)nc3)cc12)c1cc(Cl)ccn1 (racemic) [Example 62, 2-(5-(3-chloro-4-((1-(4-chloropyridin-2-yl)ethyl)amino)quinolin-6-yl)pyrimidin-2-yl)propan-2-ol]
< 1	CCC(Nc1c(Cl)cnc2ccc(-c3cnc(C(C)(C)O)nc3)cc12)c1nc(Br)ccc1F (racemic) [Example 64, 2-(5-(4-((1-(6-bromo-3-fluoropyridin-2-yl)propyl)amino)-3-chloroquinolin-6-yl)pyrimidin-2-yl)propan-2-ol]
1 to 10	Cc1ccc(C)c(Nc2c(Cl)c(N)nc3ccc(-c4cnc(NCC(O)CO)nc4)cc23)c1 (racemic) [Example 73, 3-((5-(2-amino-3-chloro-4-((2,5-dimethylphenyl)amino)quinolin-6-yl)pyrimidin-2-yl)amino)propane-1,2-diol]
10 to 25	CC(Nc1c(Cl)cnc2ccc(-c3cnc(C(C)(C)O)nc3)cc12)[C@@H]1CCCNC1 (mixture of isomers) [Example 98, (R)-2-(5-(3-chloro-4-((1-(piperidin-3-yl)ethyl)amino)quinolin-6-yl)pyrimidin-2-yl)propan-2-ol]
10 to 25	CC(Nc1c(Cl)cnc2c(Cl)cc(Br)cc12)c1ccccc1F (racemic) [Example 122, 6-bromo-3,8-dichloro-N-(1-(2-fluorophenyl)ethyl)quinolin-4-amine]
< 1	C=Cc1ccc(F)c(C(CC)Nc2c(Cl)cnc3ccc(-c4cnc(C(C)(C)O)nc4)cc23)n1 (racemic) [Example 126, 2-(5-(3-chloro-4-((1-(3-fluoro-6-vinylpyridin-2-yl)propyl)amino)quinolin-6-yl)pyrimidin-2-yl)propan-2-ol]
< 1	CC(Cc1ccco1)Nc1c(Cl)cnc2ccc(-c3cnc(C(C)(C)O)nc3)cc12 (racemic) [Example 133, 2-(5-(3-chloro-4-((1-(furan-2-yl)propan-2-yl)amino)quinolin-6-yl)pyrimidin-2-yl)propan-2-ol]
1 to 10	CC1=C(CC(C)Nc2c(Cl)cnc3ccc(-c4cnc(C(C)(C)O)nc4)cc23)CCC1(C)C (racemic) [Example 134, 2-(5-(3-chloro-4-((1-(2,3,3-trimethylcyclopent-1-en-1-yl)propan-2-yl)amino)quinolin-6-yl)pyrimidin-2-yl) propan-2-ol]
< 1	CC(C)CC(C)Nc1c(Cl)cnc2ccc(-c3cnc(C(C)(C)O)nc3)cc12 (racemic) [Example 135, 2-(5-(3-chloro-4-((4-methylpentan-2-yl)amino)quinolin-6-yl)pyrimidin-2-yl)propan-2-ol]
1 to 10	CC(Cc1ccc(OC(F)(F)F)cc1)Nc1c(Cl)cnc2ccc(-c3cnc(C(C)(C)O)nc3)cc12 (racemic) [Example 137, 2-(5-(3-chloro-4-((1-(4-(trifluoromethoxy)phenyl)propan-2-yl)amino)quinolin-6-yl)pyrimidin-2-yl)propan-2-ol]
10 to 25	CC(Cc1cn(C)c(=O)c2ccccc12)Nc1c(Cl)cnc2ccc(-c3cnc(C(C)(C)O)nc3)cc12 (racemic) [Example 138, 4-(2-((3-chloro-6-(2-(2-hydroxypropan-2-yl)pyrimidin-5-yl)quinolin-4-yl)amino)propyl)-2-methylisoquinolin-1(2H)-one]
< 1	CCCCCC(C)Nc1c(Cl)cnc2ccc(-c3cnc(C(C)(C)O)nc3)cc12 (racemic) [Example 139, 2-(5-(3-chloro-4-(heptan-2-ylamino)quinolin-6-yl)pyrimidin-2-yl) propan-2-ol]
< 1	CC(CC1CCCC1)Nc1c(Cl)cnc2ccc(-c3cnc(C(C)(C)O)nc3)cc12 (racemic) [Example 140, 2-(5-(3-chloro-4-((1-cyclopentylpropan-2-yl)amino)quinolin-6-yl)pyrimidin-2-yl)propan-2-ol]
10 to 25	Cc1ccc2c(CCC(C)Nc3c(Cl)cnc4ccc(-c5cnc(C(C)(C)O)nc5)cc34)c[nH]c2c1 (racemic) [Example 141, 2-(5-(3-chloro-4-((4-(6-methyl-1H-indol-3-yl)butan-2-yl)amino)quinolin-6-yl)pyrimidin-2-yl)propan-2-ol]
